Experiments:
[1] = system: cells of the intestinal mucosa; assay: BrdU cell migration along the villus axis (highest labeled cell); assay type: in vivo, mouse; details: estrogen s.c., standard diet, 24 h after BrdU
Experimental: After 10 weeks of treatment the animals received an intraperitoneal injection of 0.75 mg of Bromodeoxyuridine (BrdU), equivalent to 30 mg/kg, to verify the migration of cells of the intestinal mucosa along the villus axis (from crypt at the bottom to the luminal tip). This parameter allows to verify the normal esfoliative physiology of the intestinal mucosa, through which the mucosa keeps itself composed of healthy and vital cells. To this end, the animals were sacrificed 24, 48 and 72 hours after injection. Small intestine and colon were taken from every sacrificed animal. The small intestine was divided into three sections: proximal, medial and distal. The proximal tract was further divided in two portions that were subsequently scraped. One of the two was dipped in RNAlater® and stored at −20° C. and the other stored in liquid nitrogen. The two samples were used for Real Time PCR and Western Blotting, respectively. The medial and distal tracts, together with the colon, were used for the histological analysis. After a 3-hours pre-fixative treatment with formol, the intestinal tracts under examination were observed under an STM1 stereomicroscope, 3× magnification. Two blinded observers measured the number and size of polyps.

[2] = system: C57BL/6J-APC Min/+ transgenic mice; details: female transgenic mice, administration after ovariectomy, Weyant et al.; cited from earlier work
[3] = system: C57BL/6J-APC Min/+ transgenic mice; assay: Number and volume of intestinal polyps in APC Min/+ mice fed different diets for 10 weeks; assay type: in vivo, mouse; details: standard diet, s.c. pellet 1.5 mg 17β-estradiol, mean ± SD
Description: The C57BL/6J APC Min/+ transgenic mouse is an excellent animal model for FAP, because the mutated APC gene is homologous to the human one. Even in the most common form of CRC, called sporadic, 85% of cases show the somatic mutation of the APC tumour suppressor gene. Therefore, the APC mutated transgenic animal model is acknowledged as the most significant for the study of the pathogenetic mechanisms that characterise the adenomatous polyposis in the colon, both in FAP and sporadic form, and it is considered a validated animal model for the set up of nutritional and pharmacological interventions aimed at controlling the development of adenomas and at preventing their progression to CRC (Levy D B et al. Inactivation of both APC alleles in human and mouse tumors. Cancer Res 1994, 54: 5953-5958; Paulsen J E et al. Qualitative and quantitative relationship between dysplastic aberrant crypt foci and tumorigenesis in the Min/+ mouse colon). For this reason, in setting up the oral formulations object of the present invention, and in the evaluation of their safety and efficacy, the Inventors made use of the above mentioned C57BL/6J APC Min/+ transgenic mouse model. Hereafter are described the data showing the effect in C57BL/6J-APC Min/+ transgenic mice, orally fed silymarin added diets, containing soluble and insoluble fibres in different proportions with the purpose of highlighting the differentiative properties of the insoluble and indigestible fibre. […]
After 10 weeks of treatment the animals received an intraperitoneal injection of 0.75 mg of Bromodeoxyuridine (BrdU), equivalent to 30 mg/kg, to verify the migration of cells of the intestinal mucosa along the villus axis (from crypt at the bottom to the luminal tip). […] Two blinded observers measured the number and size of polyps. […]

[4] = Body weight, mortality, dietary intake and tolerability during 10 weeks of diet; details: standard diet, s.c. pellet 1.5 mg 17β-estradiol, mean ± SD
Experimental: Silymarin up to 200 mg/kg was added to each diet. The diets were orally administered for 10 weeks to 114 male C57BL/6J-APC Min/+ transgenic mice 5-6 weeks old. These mice have a mutation of the APC gene, and are prone to develop colon adenomatous polyposis. […] The statistical analysis has been performed by means of the One-way Analysis of Variance and the t-Student tests, considering statistically significant a p<0.05.
Every oral treatment lasted 10 weeks. The treatment scheme was designed to highlight the effects of the type of fibre, associated or not with increasing amounts of silymarin.

[5] = system: C57BL/6J-APC Min/+ transgenic mice; assay: Histological grading of dysplasia of adenomatous formations; assay type: in vivo, mouse; details: estradiol-treated animals
Description: Histological preparations of randomly chosen intestine sections of every animal from the different treatment groups were observed by a blinded pathologist, who graded the dysplasia of the adenomatous formations present as minor, mild or severe.

SMILES: C[C@]12CC[C@@H]3c4ccc(O)cc4CC[C@H]3[C@@H]1CC[C@@H]2O [estrogen, 17β-estradiol]
- 24 hours migration of colonocytes from the crypt to the apex of the villus [1]: 47.3 ± 10.5 %
- Intestinal adenomas after ovariectomy [2]: caused a reduction in intestinal adenomas
- Number of intestinal polyps [3]: 32.33 ± 12.06
- Polyps volume ([3]; listed as Estrogen): 141.78 ± 79.1 mm^3
- Polyps volume ([3]; listed as estradiol): ineffective
- Body weight at time of sacrifice [4]: 24.9 ± 2.8 g
- Animals showing polyps with dysplasia classifiable as severe [5]: 70%

— patent US20110027230A1 (priority 2008, published 2011)
